Tested on: PABPC1 PABC
Assay type: binding, human
Settings: DMS-BM library, bait PABPC1 PABC, row aa = residue at this position; for DMS-derived PSSM value, position L2 / DMS-derived PSSM value (averaged), position L2 / DMS-derived PSSM value, position L4: L = wild type; for DMS-derived PSSM value (averaged), position A6 / DMS-derived PSSM value, position A6: A = wild type
[1] = prey ATXN2, TLNPNAKEFNPRSF(averaged) over the two overlapping peptides, N = wild type
[2] = prey ATXN2, peptide TLNPNAKEFNPRSFSQ
[3] = prey ATXN2, TLNPNAKEFNPRSF(averaged) over the two overlapping peptides
[4] = prey ATXN2, peptide KSTLNPNAKEFNPRSF, N = wild type
[5] = prey ATXN2, peptide KSTLNPNAKEFNPRSF
[6] = prey ATXN2, TLNPNAKEFNPRSF(averaged) over the two overlapping peptides, T = wild type
[7] = prey ATXN2, peptide TLNPNAKEFNPRSFSQ, E = wild type
[8] = prey ATXN2, TLNPNAKEFNPRSF(averaged) over the two overlapping peptides, R = wild type
[9] = prey ATXN2, TLNPNAKEFNPRSF(averaged) over the two overlapping peptides, K = wild type
[10] = prey ATXN2, peptide TLNPNAKEFNPRSFSQ, S = wild type
[11] = prey ATXN2, TLNPNAKEFNPRSF(averaged) over the two overlapping peptides, E = wild type
[12] = prey ATXN2, TLNPNAKEFNPRSF(averaged) over the two overlapping peptides, F = wild type
[13] = prey ATXN2, peptide TLNPNAKEFNPRSFSQ, N = wild type
[14] = prey ATXN2, peptide TLNPNAKEFNPRSFSQ, T = wild type
[15] = prey ATXN2, TLNPNAKEFNPRSF(averaged) over the two overlapping peptides, P = wild type
[16] = prey ATXN2, TLNPNAKEFNPRSF(averaged) over the two overlapping peptides, S = wild type
[17] = prey ATXN2, peptide KSTLNPNAKEFNPRSF, P = wild type
[18] = prey ATXN2, peptide TLNPNAKEFNPRSFSQ, F = wild type
[19] = prey ATXN2, peptide KSTLNPNAKEFNPRSF, R = wild type
[20] = prey ATXN2, peptide KSTLNPNAKEFNPRSF, F = wild type

TLNPNAKEFNPRSF(averaged) N10E (TLNPNAKEFEPRSF)
DMS-derived PSSM value (averaged), position N10 [1]: 0.03135

TLNPNAKEFNPRSFSQ L2G (TGNPNAKEFNPRSFSQ)
DMS-derived PSSM value, position L2 [2]: 0

KSTLNPNAKEFNPRSF E10T (KSTLNPNAKTFNPRSF)
DMS-derived PSSM value, position E10 (prey ATXN2, peptide KSTLNPNAKEFNPRSF, E = wild type): 0.1693

TLNPNAKEFNPRSF(averaged) A6F (TLNPNFKEFNPRSF)
DMS-derived PSSM value (averaged), position A6 [3]: 0

TLNPNAKEFNPRSF(averaged) N5Q (TLNPQAKEFNPRSF)
DMS-derived PSSM value (averaged), position N5 [1]: 0.02375

TLNPNAKEFNPRSF(averaged) L2T (TTNPNAKEFNPRSF)
DMS-derived PSSM value (averaged), position L2 [3]: 0

KSTLNPNAKEFNPRSF N7S (KSTLNPSAKEFNPRSF)
DMS-derived PSSM value, position N7 [4]: 0.04398

TLNPNAKEFNPRSF(averaged) A6T (TLNPNTKEFNPRSF)
DMS-derived PSSM value (averaged), position A6 [3]: 0.133

KSTLNPNAKEFNPRSF L4Q (KSTQNPNAKEFNPRSF)
DMS-derived PSSM value, position L4 [5]: 0

TLNPNAKEFNPRSF(averaged) L2V (TVNPNAKEFNPRSF)
DMS-derived PSSM value (averaged), position L2 [3]: 0.005447

TLNPNAKEFNPRSF(averaged) N3V (TLVPNAKEFNPRSF)
DMS-derived PSSM value (averaged), position N3 [1]: 0

TLNPNAKEFNPRSF(averaged) T1S (SLNPNAKEFNPRSF)
DMS-derived PSSM value (averaged), position T1 [6]: 0.002379

TLNPNAKEFNPRSFSQ E8L (TLNPNAKLFNPRSFSQ)
DMS-derived PSSM value, position E8 [7]: 0

TLNPNAKEFNPRSF(averaged) R12E (TLNPNAKEFNPESF)
DMS-derived PSSM value (averaged), position R12 [8]: 0.01393

TLNPNAKEFNPRSFSQ L2Y (TYNPNAKEFNPRSFSQ)
DMS-derived PSSM value, position L2 [2]: 0.1104

TLNPNAKEFNPRSFSQ K7E (TLNPNAEEFNPRSFSQ)
DMS-derived PSSM value, position K7 (prey ATXN2, peptide TLNPNAKEFNPRSFSQ, K = wild type): 0.001823

KSTLNPNAKEFNPRSF L4Y (KSTYNPNAKEFNPRSF)
DMS-derived PSSM value, position L4 [5]: 0

TLNPNAKEFNPRSF(averaged) K7F (TLNPNAFEFNPRSF)
DMS-derived PSSM value (averaged), position K7 [9]: 0.04105

TLNPNAKEFNPRSFSQ S15G (TLNPNAKEFNPRSFGQ)
DMS-derived PSSM value, position S15 [10]: 0.2429

TLNPNAKEFNPRSFSQ S13E (TLNPNAKEFNPREFSQ)
DMS-derived PSSM value, position S13 [10]: 0.006231

TLNPNAKEFNPRSFSQ A6V (TLNPNVKEFNPRSFSQ)
DMS-derived PSSM value, position A6 [2]: 0.2197

TLNPNAKEFNPRSFSQ E8I (TLNPNAKIFNPRSFSQ)
DMS-derived PSSM value, position E8 [7]: 0.01296

TLNPNAKEFNPRSF(averaged) E8Q (TLNPNAKQFNPRSF)
DMS-derived PSSM value (averaged), position E8 [11]: 0.02477

TLNPNAKEFNPRSF(averaged) F9A (TLNPNAKEANPRSF)
DMS-derived PSSM value (averaged), position F9 [12]: 0

TLNPNAKEFNPRSFSQ S13K (TLNPNAKEFNPRKFSQ)
DMS-derived PSSM value, position S13 [10]: 0.007933

TLNPNAKEFNPRSF(averaged) L2P (TPNPNAKEFNPRSF)
DMS-derived PSSM value (averaged), position L2 [3]: 0.01878

TLNPNAKEFNPRSF(averaged) R12H (TLNPNAKEFNPHSF)
DMS-derived PSSM value (averaged), position R12 [8]: 0.1075

TLNPNAKEFNPRSF(averaged) R12M (TLNPNAKEFNPMSF)
DMS-derived PSSM value (averaged), position R12 [8]: 0.02329

KSTLNPNAKEFNPRSF S2L (KLTLNPNAKEFNPRSF)
DMS-derived PSSM value, position S2 (prey ATXN2, peptide KSTLNPNAKEFNPRSF, S = wild type): 0.006151

TLNPNAKEFNPRSF(averaged) N3I (TLIPNAKEFNPRSF)
DMS-derived PSSM value (averaged), position N3 [1]: 0

TLNPNAKEFNPRSFSQ N3Q (TLQPNAKEFNPRSFSQ)
DMS-derived PSSM value, position N3 [13]: 0.055

TLNPNAKEFNPRSFSQ A6K (TLNPNKKEFNPRSFSQ)
DMS-derived PSSM value, position A6 [2]: 0

TLNPNAKEFNPRSFSQ T1Y (YLNPNAKEFNPRSFSQ)
DMS-derived PSSM value, position T1 [14]: 0.3306

TLNPNAKEFNPRSF
DMS-derived PSSM value (averaged), position A6 [3]: 0.4881 | DMS-derived PSSM value (averaged), position E8 [11]: 0.1343 | DMS-derived PSSM value (averaged), position F9 [12]: 0.3018 | DMS-derived PSSM value (averaged), position F14 [12]: 0.06062 | DMS-derived PSSM value (averaged), position K7 [9]: 0.01034 | DMS-derived PSSM value (averaged), position L2 [3]: 0.5343 | DMS-derived PSSM value (averaged), position N3 [1]: 0.5964 | DMS-derived PSSM value (averaged), position N5 [1]: 0.0195 | DMS-derived PSSM value (averaged), position N10 [1]: 0.05544 | DMS-derived PSSM value (averaged), position P4 [15]: 0.1195 | DMS-derived PSSM value (averaged), position P11 [15]: 0.04091 | DMS-derived PSSM value (averaged), position R12 [8]: 0.02883 | DMS-derived PSSM value (averaged), position S13 [16]: 0.05759 | DMS-derived PSSM value (averaged), position T1 [6]: 0.0418

KSTLNPNAKEFNPRSF L4A (KSTANPNAKEFNPRSF)
DMS-derived PSSM value, position L4 [5]: 0

KSTLNPNAKEFNPRSF P6Y (KSTLNYNAKEFNPRSF)
DMS-derived PSSM value, position P6 [17]: 0

TLNPNAKEFNPRSFSQ F14D (TLNPNAKEFNPRSDSQ)
DMS-derived PSSM value, position F14 [18]: 0.0175

KSTLNPNAKEFNPRSF R14F (KSTLNPNAKEFNPFSF)
DMS-derived PSSM value, position R14 [19]: 0.03238

TLNPNAKEFNPRSFSQ F14H (TLNPNAKEFNPRSHSQ)
DMS-derived PSSM value, position F14 [18]: 0.09586

KSTLNPNAKEFNPRSF F11D (KSTLNPNAKEDNPRSF)
DMS-derived PSSM value, position F11 [20]: 0

TLNPNAKEFNPRSF(averaged) S13A (TLNPNAKEFNPRAF)
DMS-derived PSSM value (averaged), position S13 [16]: 0.1254

TLNPNAKEFNPRSFSQ S15P (TLNPNAKEFNPRSFPQ)
DMS-derived PSSM value, position S15 [10]: 0.326

KSTLNPNAKEFNPRSF R14N (KSTLNPNAKEFNPNSF)
DMS-derived PSSM value, position R14 [19]: 0.007229

TLNPNAKEFNPRSFSQ S15W (TLNPNAKEFNPRSFWQ)
DMS-derived PSSM value, position S15 [10]: 0.05986

KSTLNPNAKEFNPRSF L4G (KSTGNPNAKEFNPRSF)
DMS-derived PSSM value, position L4 [5]: 0

KSTLNPNAKEFNPRSF T3N (KSNLNPNAKEFNPRSF)
DMS-derived PSSM value, position T3 (prey ATXN2, peptide KSTLNPNAKEFNPRSF, T = wild type): 0.01165

KSTLNPNAKEFNPRSF P6T (KSTLNTNAKEFNPRSF)
DMS-derived PSSM value, position P6 [17]: 0.001755

TLNPNAKEFNPRSF(averaged) P4W (TLNWNAKEFNPRSF)
DMS-derived PSSM value (averaged), position P4 [15]: 0

KSTLNPNAKEFNPRSF F11I (KSTLNPNAKEINPRSF)
DMS-derived PSSM value, position F11 [20]: 0

TLNPNAKEFNPRSFSQ P11K (TLNPNAKEFNKRSFSQ)
DMS-derived PSSM value, position P11 (prey ATXN2, peptide TLNPNAKEFNPRSFSQ, P = wild type): 0

TLNPNAKEFNPRSF(averaged) T1I (ILNPNAKEFNPRSF)
DMS-derived PSSM value (averaged), position T1 [6]: 0.08555

KSTLNPNAKEFNPRSF F16H (KSTLNPNAKEFNPRSH)
DMS-derived PSSM value, position F16 [20]: 0.03107

TLNPNAKEFNPRSFSQ N3P (TLPPNAKEFNPRSFSQ)
DMS-derived PSSM value, position N3 [13]: 0

KSTLNPNAKEFNPRSF N5Q (KSTLQPNAKEFNPRSF)
DMS-derived PSSM value, position N5 [4]: 0

KSTLNPNAKEFNPRSF N7R (KSTLNPRAKEFNPRSF)
DMS-derived PSSM value, position N7 [4]: 0.005056

KSTLNPNAKEFNPRSF N5K (KSTLKPNAKEFNPRSF)
DMS-derived PSSM value, position N5 [4]: 0

TLNPNAKEFNPRSFSQ R12Q (TLNPNAKEFNPQSFSQ)
DMS-derived PSSM value, position R12 (prey ATXN2, peptide TLNPNAKEFNPRSFSQ, R = wild type): 0.0158

KSTLNPNAKEFNPRSF L4S (KSTSNPNAKEFNPRSF)
DMS-derived PSSM value, position L4 [5]: 0

TLNPNAKEFNPRSFSQ N10S (TLNPNAKEFSPRSFSQ)
DMS-derived PSSM value, position N10 [13]: 0.03126

TLNPNAKEFNPRSFSQ T1A (ALNPNAKEFNPRSFSQ)
DMS-derived PSSM value, position T1 [14]: 0.03403
